Data reported in patent publication US9073940B2, “Tricyclic pyrazol amine derivatives” (MERCK SERONO SA, priority 2009, dated 2015).
Counter-ions that a name gives are not always drawn.

Test system: 4 PI3K isoforms (Human recombinant GST-PI3K)
Experiment: PI3K scintillation proximity assay, best IC50 obtained with the four isoforms (alpha, beta, delta, gamma)
Type: biochemical
Conditions: best IC50 obtained with the four isoforms of PI3K; read-out: Best potency measured on the 4 PI3K isoforms

Compound | IC50 [nM]
3-(Morpholin-4-ylcarbonyl)-1-phenyl-4H- imidazo[5,1-c][1,4]benzothiazine 5,5-dioxide [Example 486] | 2740
O=C(c1nn(C2CCCN(CCF)C2)c2c1CS(=O)(=O)c1ccccc1-2)N1CCOCC1 (single isomer, unassigned) [Example 221, 1-[1-(2-fluoroethyl)piperidin-3-yl]-3-(morpholin-4-ylcarbonyl)-1,4-dihydrothiochromeno[4,3-c]pyrazole 5,5-dioxide] | 320
O=C(c1nn(C2CCCN(CCN3CC[C@H](F)C3)C2)c2c1CS(=O)(=O)c1ccccc1-2)N1CCOCC1 (single isomer, unassigned) [Example 282] | 72
O=C(c1nn(C2CCCN(CCN3CC[C@@H](F)C3)C2)c2c1CS(=O)(=O)c1ccccc1-2)N1CCOCC1 (single isomer, unassigned) [Example 283] | 34
O=C(c1nn([C@H]2CCCN(CCC3CCOCC3)C2)c2c1CS(=O)(=O)c1ccccc1-2)N1CCOCC1 (single isomer, unassigned) [Example 306, 3-(morpholin-4-ylcarbonyl)-1-{1-[2-(tetrahydro-2H-pyran-4-yl)ethyl]piperidin-3-yl}-1,4-dihydrothiochromeno[4,3-c]pyrazole 5,5-dioxide] | 34
O=C(c1nn([C@@H]2CCCN(CCC3CCOCC3)C2)c2c1CS(=O)(=O)c1ccccc1-2)N1CCOCC1 (single isomer, unassigned) [Example 307, 3-(morpholin-4-ylcarbonyl)-1-{1-[2-(tetrahydro-2H-pyran-4-yl)ethyl]piperidin-3-yl}-1,4-dihydrothiochromeno[4,3-c]pyrazole 5,5-dioxide] | 2200
O=C(c1nn([C@@H]2CCCN(CCC3CCOCC3)C2)c2c1CS(=O)(=O)c1c(F)cccc1-2)N1CCOCC1 (single isomer, unassigned) [Example 343, 6-fluoro-3-(morpholin-4-ylcarbonyl)-1-{1-[2-(tetrahydro-2H-pyran-4-yl)ethyl]piperidin-3-yl}-1,4-dihydrothiochromeno[4,3-c]pyrazole 5,5-dioxide hydrochloride salt] | 1920
O=C(c1nn([C@H]2CCCN(CCC3CCOCC3)C2)c2c1CS(=O)(=O)c1c(F)cccc1-2)N1CCOCC1 (single isomer, unassigned) [Example 344, 6-fluoro-3-(morpholin-4-ylcarbonyl)-1-{1-[2-(tetrahydro-2H-pyran-4-yl)ethyl]piperidin-3-yl}-1,4-dihydrothiochromeno[4,3-c]pyrazole 5,5-dioxide] | 6
COCCN1CCC[C@@H](n2nc(C(=O)N3CCOCC3)c3c2-c2ccccc2S(=O)(=O)C3)C1 (single isomer, unassigned) [Example 347, 1-[1-(2-methoxyethyl)piperidin-3-yl]-3-(morpholin-4-ylcarbonyl)-1,4-dihydrothiochromeno[4,3-c]pyrazole 5,5-dioxide] | 3550
O=C(c1nn([C@@H]2CCCN(CCN3CCOCC3)C2)c2c1CS(=O)(=O)c1ccccc1-2)N1CCOCC1 (single isomer, unassigned) [Example 348, 3-(morpholin-4-ylcarbonyl)-1-[1-(2-morpholin-4-ylethyl)piperidin-3-yl]-1,4-dihydrothiochromeno[4,3-c]pyrazole 5,5-dioxide] | 1280
O=C(c1nn([C@@H]2CCN(C3CCOCC3)C2)c2c1CS(=O)(=O)c1c(F)cccc1-2)N1CCOCC1 (single isomer, unassigned) [Example 353, 6-fluoro-3-(morpholin-4-ylcarbonyl)-1-[1-(tetrahydro-2H-pyran-4-yl)pyrrolidin-3-yl]-1,4-dihydrothiochromeno[4,3-c]pyrazole 5,5-dioxide hydrochloride salt] | 2040
O=C(c1nn([C@H]2CCN(CCC3CCOCC3)C2)c2c1CS(=O)(=O)c1c(F)cccc1-2)N1CCOCC1 (single isomer, unassigned) [Example 354, 6-fluoro-3-(morpholin-4-ylcarbonyl)-1-{1-[2-(tetrahydro-2H-pyran-4-yl)ethyl]pyrrolidin-3-yl}-1,4-dihydrothiochromeno[4,3-c]pyrazole 5,5-dioxide hydrochloride salt] | 92
O=C(c1nn([C@@H]2CCN(CCC3CCOCC3)C2)c2c1CS(=O)(=O)c1c(F)cccc1-2)N1CCOCC1 (single isomer, unassigned) [Example 356, 6-fluoro-3-(morpholin-4-ylcarbonyl)-1-{1-[2-(tetrahydro-2H-pyran-4-yl)ethyl]pyrrolidin-3-yl}-1,4-dihydrothiochromeno[4,3-c]pyrazole 5,5-dioxide hydrochloride salt] | 1690
O=C(c1nn([C@@H]2CCCNC2)c2c1CS(=O)(=O)c1ccccc1-2)N1CCOCC1 (single isomer, unassigned) [Example 358] | 3000
O=C(c1nn([C@H]2CCCNC2)c2c1CS(=O)(=O)c1ccccc1-2)N1CCOCC1 (single isomer, unassigned) [Example 359] | 1060
O=C(c1nn([C@H]2CCCN(CCN3CC(F)(F)C3)C2)c2c1CS(=O)(=O)c1ccccc1-2)N1CCOCC1 (single isomer, unassigned) [Example 362, 1-{1-[2-(3,3-difluoroazetidin-1-yl)ethyl]piperidin-3-yl}-3-(morpholin-4-ylcarbonyl)-1,4-dihydrothiochromeno[4,3-c]pyrazole 5,5-dioxide] | 17
O=C(c1nn([C@H]2CCCN(CCN3CCC(F)CC3)C2)c2c1CS(=O)(=O)c1ccccc1-2)N1CCOCC1 (single isomer, unassigned) [Example 363, 1-{1-[2-(4-fluoropiperidin-1-yl)ethyl]piperidin-3-yl}-3-(morpholin-4-ylcarbonyl)-1,4-dihydrothiochromeno[4,3-c]pyrazole 5,5-dioxide] | 25
O=C(c1nn([C@H]2CCCN(CCN3CC[C@@H](F)C3)C2)c2c1CS(=O)(=O)c1ccccc1-2)N1CCOCC1 (single isomer, unassigned) [Example 364, 1-(1-{2-[3-fluoropyrrolidin-1-yl]ethyl}piperidin-3-yl)-3-(morpholin-4-ylcarbonyl)-1,4-dihydrothiochromeno[4,3-c]pyrazole 5,5-dioxide] | 14
O=C(c1nn([C@@H]2CCCN(CCF)C2)c2c1CS(=O)(=O)c1ccccc1-2)N1CCOCC1 (single isomer, unassigned) [Example 366] | 7970
O=C(c1nn([C@H]2CCCN(CCN3CCC(F)C3)C2)c2c1CS(=O)(=O)c1ccccc1-2)N1CCOCC1 (single isomer, unassigned) [Example 367] | 32
COc1ccc2c(c1)S(=O)(=O)Cc1c(C(=O)N3CCOCC3)nn([C@H]3CCCN(CCC4CCOCC4)C3)c1-2 (single isomer, unassigned) [Example 369] | 27
CC1(C)CN(CCN2CCC[C@H](n3nc(C(=O)N4CCOCC4)c4c3-c3ccccc3S(=O)(=O)C4)C2)CCO1 (single isomer, unassigned) [Example 370, 1-{1-[2-(2,2-dimethylmorpholin-4-yl)ethyl]piperidin-3-yl}-3-(morpholin-4-ylcarbonyl)-1,4-dihydrothiochromeno[4,3-c]pyrazole 5,5-dioxide] | 73
O=C(c1nn([C@@H]2CCCN(CC3CCOCC3)C2)c2c1CS(=O)(=O)c1ncccc1-2)N1CCOCC1 (single isomer, unassigned) [Example 371, 3-(morpholin-4-ylcarbonyl)-1-[1-(tetrahydro-2H-pyran-4-ylmethyl)piperidin-3-yl]-1,4-dihydropyrazolo[3′,4′:4,5]thiopyrano[2,3-b]pyridine 5,5-dioxide] | 830
O=C(c1nn([C@H]2CCCN(CCF)C2)c2c1CS(=O)(=O)c1ccccc1-2)N1CCOCC1 (single isomer, unassigned) [Example 372, 1-[1-(2-fluoroethyl)piperidin-3-yl]-3-(morpholin-4-ylcarbonyl)-1,4-dihydrothiochromeno[4,3-c]pyrazole 5,5-dioxide] | 200
COc1ccc2c(c1)S(=O)(=O)Cc1c(C(=O)N3CCOCC3)nn([C@@H]3CCCN(CCC4CCOCC4)C3)c1-2 (single isomer, unassigned) [Example 373] | 10300
O=C(c1nn([C@H]2CCCN(CC3CCOCC3)C2)c2c1CS(=O)(=O)c1ncccc1-2)N1CCOCC1 (single isomer, unassigned) [Example 376, 3-(morpholin-4-ylcarbonyl)-1-[1-(tetrahydro-2H-pyran-4-ylmethyl)piperidin-3-yl]1,4-dihydropyrazolo[3′,4′:4,5]thiopyrano[2,3-b]pyridine 5,5-dioxide] | 13
CC1COCCN1CCN1CCC[C@H](n2nc(C(=O)N3CCOCC3)c3c2-c2ccccc2S(=O)(=O)C3)C1 (single isomer, unassigned) [Example 377, 1-{1-[2-(3-methylmorpholin-4-yl)ethyl]piperidin-3-yl}-3-(morpholin-4-ylcarbonyl)-1,4-dihydrothiochromeno[4,3-c]pyrazole 5,5-dioxide] | 101
C[C@@H]1CN(CCN2CCC[C@H](n3nc(C(=O)N4CCOCC4)c4c3-c3ccccc3S(=O)(=O)C4)C2)C[C@H](C)O1 (single isomer, unassigned) [Example 378] | 65
O=C(c1nn([C@@H]2CCCN(C3CCCOC3)C2)c2c1CS(=O)(=O)c1ncccc1-2)N1CCOCC1 (single isomer, unassigned) [Example 379, 3-(morpholin-4-ylcarbonyl)-1-[1-(tetrahydro-2H-pyran-3-yl)piperidin-3-yl]-1,4-dihydropyrazolo[3′,4′:4,5]thiopyrano[2,3-b]pyridine 5,5-dioxide] | 2930
O=C(c1nn([C@H]2CCCN(C3CCCOC3)C2)c2c1CS(=O)(=O)c1ncccc1-2)N1CCOCC1 (single isomer, unassigned) [Example 381, 3-(morpholin-4-ylcarbonyl)-1-[1-(tetrahydro-2H-pyran-3-yl)piperidin-3-yl]-1,4-dihydropyrazolo[3′,4′:4,5]thiopyrano[2,3-b]pyridine 5,5-dioxide] | 36
